Read-outs that look alike come from different tables or passages of the source.
Legend:
[1] = test system: Balamuthia mandrillaris (CDC:V039; ATCC 50209) trophozoites; experiment: CellTiter-Glo 2.0 trophocidal assay, B. mandrillaris; format: cell-based
Excerpt: For sub-culturing, 0.25% Trypsin–EDTA (Gibco) cell detachment reagent was used to detach the cells from the culture flasks.

[2] = test system: Naegleria fowleri (ATCC 30215) trophozoites; experiment: microbe, parasite or virus in culture; conditions: Naegleria fowleri, read-out: Naegleria fowleri EC50 ± SD, logarithmic trophozoites, 72 h, n = 3 (converted)
Protocol: Trophozoites were routinely grown axenically at 34°C, 5% CO2, in Nelson’s complete medium (NCM) in non-vented 75 cm^2 tissue culture flasks (Olympus), until the cells were 80–90% confluent. For sub-culturing, cells were placed on ice to detach the cells from the culture flasks. […] Complete NCM media is prepared by the addition of 10% fetal bovine serum (FBS) and 100 U/mL penicillin, and 100 μg/mL streptomycin antibiotics.
Trophozoites were routinely cultured as described above and only logarithmic trophozoites were used.
All assays were incubated at each of the parasites’ representative growth temperatures, described above, for 72 h. At the 72-h time point, 25 μL of CellTiter-Glo 2.0 reagent was added to all wells of the 96-well plates by hand. The plates were protected from light and contents were mixed using an orbital shaker at 300 rpm at room temperature for 2 min to induce cell lysis. After shaking, the plates were equilibrated at room temperature for 10 min to stabilize the luminescent signal. The ATP luminescent signal (relative light units; RLUs) were measured […] with a SpectraMax I3X plate reader (Molecular Devices, Sunnyvale, CA, United States). […] Values reported are from a minimum of three biological replicates with standard deviation.

[3] = test system: Acanthamoeba castellanii T4 isolate (ATCC 50370) trophozoites; experiment: CellTiter-Glo 2.0 trophocidal assay, A. castellanii; format: cell-based; conditions: Acanthamoeba castellanii, ATCC50370, 72 h, read-out: Acanthamoeba castellanii EC50 ± SD
Excerpt: This isolate was purchased from American Type Culture Collection (ATCC). […] For sub-culturing, cells were mechanically harvested to detach the cells from the culture flasks.

[4] = Balamuthia mandrillaris, ATCC50209, 72 h, read-out: Balamuthia mandrillaris EC50 ± SD, logarithmic trophozoites, 72 h, n = 3 (converted)
[5] = Balamuthia mandrillaris, ATCC50209, 72 h, logarithmic trophozoites, 72 h, n = 3, read-out: Balamuthia mandrillaris EC50 ± SD
[6] = logarithmic trophozoites, 72 h, n = 3
[7] = Balamuthia mandrillaris, ATCC50209, 72 h, read-out: Balamuthia mandrillaris EC50 ± SD

Compound	EC50 [1, 4] [µM]	EC50 ([2]; 72 h) [µM]	EC50 [3] [µM]	EC50 [1, 5] [µM]	EC50 [3, 6] [µM]	further results
CC(=O)c1ccc2c(c1)c1cc(C(C)=O)ccc1n2CCN1CCCOCC1 [Compound 8j]	3.3 ± 0.24	10 ± 1.4				
CC(=O)c1ccc2c(c1)c1cc(C(C)=O)ccc1n2CCNC1CCCC1 [Compound 8k]	7.4 ± 0.36					
CC(=O)c1ccc2c(c1)c1cc(C(C)=O)ccc1n2CCN1CCOC[C@H]1C [Compound 8l]	12					EC50 ([1]; read-out: Balamuthia mandrillaris EC50 ± SD, logarithmic trophozoites, 72 h, n = 3): 13 ± 0.35 µM
Cc1n[nH]c(Nc2cccc3c2CCO3)c1C [Compound S6, N-(2,3-Dihydrobenzofuran-4-yl)-3,4-dimethyl-1H-pyrazol-5-amine]	> 20		> 20			
Cc1n[nH]c(Nc2cccc3c2CN(C)C3=O)c1C [Compound S8, 4-((3,4-Dimethyl-1H-pyrazol-5-yl)amino)-2-methylisoindolin-1-one]	> 20		> 20			
c1cnc(Nc2ccnc3cc(C4CCCNC4)ccc23)cn1 (stereo not drawn) [Compound S18, 7-(Piperidin-3-yl)-N-(pyrazin-2-yl)quinolin-4-amine]				> 20	> 20	EC50 ([2]; ATCC30215, 72 h): > 20 µM
c1nc2c(N3CCOCC3)nc(Nc3ccsc3)nc2[nH]1 [Compound S25]		> 20		> 20	> 20	
CC(C)(C)c1ccc(Nc2nccc(-c3c(-c4ccc(C(F)(F)F)cc4)nn4ncccc34)n2)cc1 [Compound S26]		> 20	> 20			EC50 [1, 7]: > 20 µM
CC(C)(O)c1nn2ncccc2c1-c1ccnc(Nc2ccc(C(N)=O)cc2)n1 [Compound S27]		> 20	> 20			EC50 [1, 7]: > 20 µM
c1cnn2ncc(-c3ccncc3)c2c1 [Compound S28]		> 20	> 20			EC50 [1, 7]: > 20 µM
N#Cc1cccc(Nc2nccc(-c3c(CO)nn4nc(N5CCOCC5)ccc34)n2)c1 [Compound S29]		> 20	> 20			EC50 [1, 7]: > 20 µM
CN1CCCN(c2ncc(-c3ccc4c(Nc5cnccn5)ccnc4c3)cn2)CC1 [Compound S33]		> 20		> 20	> 20	
CN1C[C@@H]2C[C@H]1CN2c1ncc(-c2ccc3c(Nc4cnccn4)ccnc3c2)cn1 [Compound S34]		> 20		> 20	> 20	
CN1CCC2(CC1)CCN(c1ncc(-c3ccc4c(Nc5cnccn5)ccnc4c3)cn1)CC2 [Compound S35]		> 20		> 20	> 20	
CN1C[C@H]2C[C@@H]1CN2c1ncc(-c2ccc3c(Nc4cnccn4)ccnc3c2)cn1 [Compound S36]		> 20		> 20	> 20	
CC(=O)c1ccc2c(c1)c1cc(C(C)=O)ccc1n2-c1ccc(N(C)C)cc1 [Compound S37]		> 20		> 20	> 20	
CC(=O)c1ccc2c(c1)c1cc(C(C)=O)ccc1n2CCN1CCNCC1 [Compound S38]	> 20	> 20	> 20			
CC(=O)c1ccc2c(c1)c1cc(C(C)=O)ccc1n2CCN1CC(F)C1 [Compound S39]	> 20		> 20			
CC(=O)c1ccc2c(c1)c1cc(C(C)=O)ccc1n2CCOC(C)C [Compound S40]	> 20		> 20			
CC(=O)c1ccc2c(c1)c1cc(C(C)=O)ccc1n2CCN1CC(N(C)C)C1 [Compound S41]	> 20		> 20			
CC(=O)c1ccc2c(c1)c1cc(C(C)=O)ccc1n2CCNCCN(C)C [Compound S42]	> 20		> 20			
CC(=O)c1ccc2c(c1)c1cc(C(C)=O)ccc1n2CCn1ccnc1 [Compound S43]	> 20	> 20	> 20			
N=C(N)c1ccc(OCCCCCOc2ccc(C(=N)N)cc2)cc1 [Pentamidine, reference compound]				18.4 ± 1.47	4.2 ± 0.08	EC50 ([2]; ATCC30215, 72 h): > 50 µM
CCC(C)(C)C(=O)O[C@H]1C[C@@H](C)C=C2C=C[C@H](C)[C@H](CC[C@@H]3C[C@@H](O)CC(=O)O3)[C@H]21 [Simvastatin, reference compound]				6.9 ± 0.04		

— PMC10206040, “Identification of novel anti-amoebic pharmacophores from kinase inhibitor chemotypes” (Frontiers in Microbiology, 2023)
